Measurements reported in US10077289B2, “Cyclosporins modified on the MeBmt sidechain by heterocyclic rings” (priority 2015, dated 2018).
In brackets after ≈: the same amount, converted by molar mass. Read-outs that look alike come from different tables or passages of the source.

Columns and labels:
[1] = Water Solubility Assay (measured in pH 7.8 buffer); assay type: physicochemical; conditions: kinetic from dmso stock, 25 °C
[2] = molecular target: calcineurin/cyclophilin A (Homo sapiens (Human), UniProt P62937+P63098+Q08209); experiment: Calcineurin Phosphatase (CaN) Assay (+CypA); assay type: biochemical
[3] = molecular target: Human recombinant cyclophilin A (Cyp A) (Homo sapiens (Human), UniProt P62937); experiment: Protease-free PPIase assay
[4] = 35 mM HEPES buffer pH 7.8, aqueous buffer, 35 mM HEPES pH 7.8, 1% DMSO, 18 h, read-out: Water Solubility Assay, concentration at which the compound remains in solution
[5] = read-out: Protease-free PPIase Assay Ki, human recombinant Cyp A, 10 °C
[6] = in the presence of Cyp A, 1:1 complex with inhibitor, read-out: Calcineurin Phosphatase (CaN) Assay (+CypA) IC50

Row | Compound | solubility at 18 h [1, 4] [µM] | IC50 [2] [nM] | Ki [3, 5] [nM] | IC50 [2, 6] [nM] | solubility at 18 h ([1]; pH 7.8, aqueous buffer) [µM] | Ki [3] [nM]
1 | CC[C@H]1NC(=O)[C@@H]([C@H](O)[C@H](C)Cc2nccn2CCN2CCOCC2)N(C)C(=O)[C@@H](C(C)C)N(C)C(=O)[C@@H](CC(C)C)N(C)C(=O)[C@@H](CC(C)C)N(C)C(=O)[C@H](C)NC(=O)[C@@H](C)NC(=O)[C@@H](CC(C)C)N(C)C(=O)[C@@H](C(C)C)NC(=O)[C@H](CC(C)C)N(C)C(=O)[C@@H](C)N(C)C1=O [Compound 2, [(2S,3R,4R)-3-Hydroxy-4-methyl-2-(methylamino)-5-(1-(N-morpholino-ethyl)-1H-imidazol-2-yl)-pentanoic acid]^1 [(R)-methyl-Sar]^3 cyclosporin A] | > 100 | > 10000 | 4.6 | – | – | –
2 | CC[C@H]1NC(=O)[C@@H]([C@H](O)[C@H](C)Cc2nccn2CCN(C)C)N(C)C(=O)[C@@H](C(C)C)N(C)C(=O)[C@@H](CC(C)C)N(C)C(=O)[C@@H](CC(C)C)N(C)C(=O)[C@H](C)NC(=O)[C@@H](C)NC(=O)[C@@H](CC(C)C)N(C)C(=O)[C@@H](C(C)C)NC(=O)[C@H](CC(C)C)N(C)C(=O)[C@@H](C)N(C)C1=O [Compound 4, [(2S,3R,4R)-5-(1-(N,N-Dimethyl-ethyl)-1H-imidazol-2-yl)-3-hydroxy-4-methyl-2-(methylamino)pentanoic acid]^1 [(R)-methyl-Sar]^3 cyclosporin A] | > 100 | – | 5.1 | 6900 | – | –
3 | CC[C@H]1NC(=O)[C@@H]([C@H](O)[C@H](C)CCCc2ccncc2)N(C)C(=O)[C@@H](C(C)C)N(C)C(=O)[C@@H](CC(C)C)N(C)C(=O)[C@@H](CC(C)C)N(C)C(=O)[C@H](C)NC(=O)[C@@H](C)NC(=O)[C@@H](CC(C)C)N(C)C(=O)[C@@H](C(C)C)NC(=O)[C@H](CC(C)C)N(C)C(=O)[C@@H](C)N(C)C1=O [Compound 15, [(2S,3R,4R)-3-Hydroxy-4-methyl-2-(methylamino)-7-(pyridin-4-yl)-heptanoic acid]^1 [(R)-methyl-Sar]^3 cyclosporin A] | – | – | – | 1600 | 50 to 75 (≈ 64.1 to 96.1 µg/mL) | 2.5
4 | CC[C@H]1NC(=O)[C@@H]([C@H](O)[C@H](C)CCCc2ccc(OC)cn2)N(C)C(=O)[C@@H](C(C)C)N(C)C(=O)[C@@H](CC(C)C)N(C)C(=O)[C@@H](CC(C)C)N(C)C(=O)[C@H](C)NC(=O)[C@@H](C)NC(=O)[C@@H](CC(C)C)N(C)C(=O)[C@@H](C(C)C)NC(=O)[C@H](CC(C)C)N(C)C(=O)[C@@H](C)N(C)C1=O [Compound 16, [(2S,3R,4R)-3-Hydroxy-4-methyl-2-(methylamino)-7-(5-methoxy-pyridin-2-yl)-heptanoic acid]^1 [(R)-methyl-Sar]^3 cyclosporin A] | 25 to 50 (≈ 32.8 to 65.6 µg/mL) | – | 0.72 | > 10000 | – | –
5 | CC[C@H]1NC(=O)[C@@H]([C@H](O)[C@H](C)CCCc2cccnc2)N(C)C(=O)[C@@H](C(C)C)N(C)C(=O)[C@@H](CC(C)C)N(C)C(=O)[C@@H](CC(C)C)N(C)C(=O)[C@H](C)NC(=O)[C@@H](C)NC(=O)[C@@H](CC(C)C)N(C)C(=O)[C@@H](C(C)C)NC(=O)[C@H](CC(C)C)N(C)C(=O)[C@@H](C)N(C)C1=O [Compound 11, [(2S,3R,4S)-3-Hydroxy-4-methyl-2-(methylamino)-7-(pyridin-3-yl)-heptanoic acid]^1 [(R)-methyl-Sar]^3 cyclosporin A] | – | – | – | 2500 | 50 to 75 (≈ 64.1 to 96.1 µg/mL) | 5.6
6 | CC[C@H]1NC(=O)[C@@H]([C@H](O)[C@H](C)CCCc2cn(C)cn2)N(C)C(=O)[C@@H](C(C)C)N(C)C(=O)[C@@H](CC(C)C)N(C)C(=O)[C@@H](CC(C)C)N(C)C(=O)[C@H](C)NC(=O)[C@@H](C)NC(=O)[C@@H](CC(C)C)N(C)C(=O)[C@@H](C(C)C)NC(=O)[C@H](CC(C)C)N(C)C(=O)[C@@H](C)N(C)C1=O [Compound 20, [(2S,3R,4R)-3-Hydroxy-7-(1-methyl-1H-imidazol-4-yl)-4-methyl-2-(methylamino)heptanoic acid]^1 [(R)-methyl-Sar]^3 cyclosporin A] | – | – | – | > 10000 | > 100 | 5.7
7 | CC[C@H]1NC(=O)[C@@H]([C@H](O)[C@H](C)Cc2nccn2CCCO)N(C)C(=O)[C@@H](C(C)C)N(C)C(=O)[C@@H](CC(C)C)N(C)C(=O)[C@@H](CC(C)C)N(C)C(=O)[C@H](C)NC(=O)[C@@H](C)NC(=O)[C@@H](CC(C)C)N(C)C(=O)[C@@H](C(C)C)NC(=O)[C@H](CC(C)C)N(C)C(=O)[C@@H](C)N(C)C1=O [Compound 6, [(2S,3R,4R)-3-Hydroxy-5-(1-(3-hydroxypropyl)-1H-imidazol-2-yl)-4-methyl-2-(methylamino)pentanoic acid]^1 [(R)-methyl-Sar]^3 cyclosporin A] | – | – | – | 4750 | > 100 | 5.1
8 | CC[C@H]1NC(=O)[C@@H]([C@H](O)[C@H](C)Cc2nccn2Cc2ccccn2)N(C)C(=O)[C@@H](C(C)C)N(C)C(=O)[C@@H](CC(C)C)N(C)C(=O)[C@@H](CC(C)C)N(C)C(=O)[C@H](C)NC(=O)[C@@H](C)NC(=O)[C@@H](CC(C)C)N(C)C(=O)[C@@H](C(C)C)NC(=O)[C@H](CC(C)C)N(C)C(=O)[C@@H](C)N(C)C1=O [Compound 5, [(2S,3R,4R)-3-Hydroxy-4-methyl-2-(methylamino)-5-(1-(pyridin-2-yl-methyl)-1H-imidazol-2-yl)-pentanoic acid]^1 [(R)-methyl-Sar]^3cyclosporin A] | > 100 | – | 4.1 | 8600 | – | –
9 | CC[C@H]1NC(=O)[C@@H]([C@H](O)[C@H](C)Cc2nccn2CCN2CCCC2)N(C)C(=O)[C@@H](C(C)C)N(C)C(=O)[C@@H](CC(C)C)N(C)C(=O)[C@@H](CC(C)C)N(C)C(=O)[C@H](C)NC(=O)[C@@H](C)NC(=O)[C@@H](CC(C)C)N(C)C(=O)[C@@H](C(C)C)NC(=O)[C@H](CC(C)C)N(C)C(=O)[C@@H](C)N(C)C1=O [Compound 3, [(2S,3R,4R)-3-Hydroxy-4-methyl-2-(methylamino)-5-(1-(N-pyrrolidinyl-ethyl)-1H-imidazol-2-yl)pentanoic acid]^1 [(R)-methyl-Sar]^3 cyclosporin A] | > 100 | – | 8.6 | > 10000 | – | –
10 | CC[C@H]1NC(=O)[C@@H]([C@H](O)[C@H](C)CCCc2ccncc2)N(C)C(=O)[C@@H](C(C)C)N(C)C(=O)[C@@H](CC(C)C)N(C)C(=O)[C@@H](CC(C)C)N(C)C(=O)[C@H](C)NC(=O)[C@@H](C)NC(=O)[C@@H](CC(C)C)N(C)C(=O)[C@@H](C(C)C)NC(=O)[C@H](CC(C)C)N(C)C(=O)[C@@H](COC)N(C)C1=O [Compound 33] | – | – | – | 2390 | 75 to 100 (≈ 98.4 to 131 µg/mL) | 3.1
11 | CC[C@H]1NC(=O)[C@@H]([C@H](O)[C@H](C)CCCc2csc(C)n2)N(C)C(=O)[C@@H](C(C)C)N(C)C(=O)[C@@H](CC(C)C)N(C)C(=O)[C@@H](CC(C)C)N(C)C(=O)[C@H](C)NC(=O)[C@@H](C)NC(=O)[C@@H](CC(C)C)N(C)C(=O)[C@@H](C(C)C)NC(=O)[C@H](CC(C)C)N(C)C(=O)[C@@H](C)N(C)C1=O [Compound 13, [(2S,3R,4R)-3-Hydroxy-4-methyl-2-(methylamino)-7-(2-methyl-thiazol-4-yl)-heptanoic acid]^1 [(R)-methyl-Sar]^3 cyclosporin A] | – | – | – | 1450 | 25 to 50 (≈ 32.5 to 65.1 µg/mL) | 3.2
12 | CC[C@H]1NC(=O)[C@@H]([C@H](O)[C@H](C)CCOc2ncccn2)N(C)C(=O)[C@@H](C(C)C)N(C)C(=O)[C@@H](CC(C)C)N(C)C(=O)[C@@H](CC(C)C)N(C)C(=O)[C@H](C)NC(=O)[C@@H](C)NC(=O)[C@@H](CC(C)C)N(C)C(=O)[C@@H](C(C)C)NC(=O)[C@H](CC(C)C)N(C)C(=O)[C@@H](C)N(C)C1=O [Compound 36, [(2S,3R,4R)-3-Hydroxy-4-methyl-2-(methylamino)-6-(pyrimidin-2-yloxy)-hexanoic acid]^1 cyclosporin A] | – | – | – | 1260 | > 100 | 7.7
